Test results published in patent US9586951B2 (FUJIFILM Corporation, priority 2013, dated 2017).

Target: T1, ATM (Homo sapiens, UniProt Q13315)
T1 construct: detecting phosphorylation of Chk2 in a human non-small cell lung cancer cell line NCI-H460 (ATCC company); host or cells: NCI-H460 human non-small cell lung cancer cells
Test: ATM inhibition test (phosphorylation of Chk2 generated by ionizing radiation, AlphaScreen SureFire)
Assay type: cell-based
Details: phosphorylated Chk2 in NCI-H460 cells, ionizing radiation 8Gy, 1 hour after test compound treatment; read-out: ATM inhibitory activity
Outline: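 Human NCI-H460 lung cancer cells were treated with compound for 1 h, then irradiated at 8Gy and incubated 1 h at 37° C. Phospho-Chk2 was quantified by AlphaScreen SureFire; inhibition % was normalised between irradiated untreated and non-irradiated untreated wells.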

T1 sequence (Q13315 whole entry): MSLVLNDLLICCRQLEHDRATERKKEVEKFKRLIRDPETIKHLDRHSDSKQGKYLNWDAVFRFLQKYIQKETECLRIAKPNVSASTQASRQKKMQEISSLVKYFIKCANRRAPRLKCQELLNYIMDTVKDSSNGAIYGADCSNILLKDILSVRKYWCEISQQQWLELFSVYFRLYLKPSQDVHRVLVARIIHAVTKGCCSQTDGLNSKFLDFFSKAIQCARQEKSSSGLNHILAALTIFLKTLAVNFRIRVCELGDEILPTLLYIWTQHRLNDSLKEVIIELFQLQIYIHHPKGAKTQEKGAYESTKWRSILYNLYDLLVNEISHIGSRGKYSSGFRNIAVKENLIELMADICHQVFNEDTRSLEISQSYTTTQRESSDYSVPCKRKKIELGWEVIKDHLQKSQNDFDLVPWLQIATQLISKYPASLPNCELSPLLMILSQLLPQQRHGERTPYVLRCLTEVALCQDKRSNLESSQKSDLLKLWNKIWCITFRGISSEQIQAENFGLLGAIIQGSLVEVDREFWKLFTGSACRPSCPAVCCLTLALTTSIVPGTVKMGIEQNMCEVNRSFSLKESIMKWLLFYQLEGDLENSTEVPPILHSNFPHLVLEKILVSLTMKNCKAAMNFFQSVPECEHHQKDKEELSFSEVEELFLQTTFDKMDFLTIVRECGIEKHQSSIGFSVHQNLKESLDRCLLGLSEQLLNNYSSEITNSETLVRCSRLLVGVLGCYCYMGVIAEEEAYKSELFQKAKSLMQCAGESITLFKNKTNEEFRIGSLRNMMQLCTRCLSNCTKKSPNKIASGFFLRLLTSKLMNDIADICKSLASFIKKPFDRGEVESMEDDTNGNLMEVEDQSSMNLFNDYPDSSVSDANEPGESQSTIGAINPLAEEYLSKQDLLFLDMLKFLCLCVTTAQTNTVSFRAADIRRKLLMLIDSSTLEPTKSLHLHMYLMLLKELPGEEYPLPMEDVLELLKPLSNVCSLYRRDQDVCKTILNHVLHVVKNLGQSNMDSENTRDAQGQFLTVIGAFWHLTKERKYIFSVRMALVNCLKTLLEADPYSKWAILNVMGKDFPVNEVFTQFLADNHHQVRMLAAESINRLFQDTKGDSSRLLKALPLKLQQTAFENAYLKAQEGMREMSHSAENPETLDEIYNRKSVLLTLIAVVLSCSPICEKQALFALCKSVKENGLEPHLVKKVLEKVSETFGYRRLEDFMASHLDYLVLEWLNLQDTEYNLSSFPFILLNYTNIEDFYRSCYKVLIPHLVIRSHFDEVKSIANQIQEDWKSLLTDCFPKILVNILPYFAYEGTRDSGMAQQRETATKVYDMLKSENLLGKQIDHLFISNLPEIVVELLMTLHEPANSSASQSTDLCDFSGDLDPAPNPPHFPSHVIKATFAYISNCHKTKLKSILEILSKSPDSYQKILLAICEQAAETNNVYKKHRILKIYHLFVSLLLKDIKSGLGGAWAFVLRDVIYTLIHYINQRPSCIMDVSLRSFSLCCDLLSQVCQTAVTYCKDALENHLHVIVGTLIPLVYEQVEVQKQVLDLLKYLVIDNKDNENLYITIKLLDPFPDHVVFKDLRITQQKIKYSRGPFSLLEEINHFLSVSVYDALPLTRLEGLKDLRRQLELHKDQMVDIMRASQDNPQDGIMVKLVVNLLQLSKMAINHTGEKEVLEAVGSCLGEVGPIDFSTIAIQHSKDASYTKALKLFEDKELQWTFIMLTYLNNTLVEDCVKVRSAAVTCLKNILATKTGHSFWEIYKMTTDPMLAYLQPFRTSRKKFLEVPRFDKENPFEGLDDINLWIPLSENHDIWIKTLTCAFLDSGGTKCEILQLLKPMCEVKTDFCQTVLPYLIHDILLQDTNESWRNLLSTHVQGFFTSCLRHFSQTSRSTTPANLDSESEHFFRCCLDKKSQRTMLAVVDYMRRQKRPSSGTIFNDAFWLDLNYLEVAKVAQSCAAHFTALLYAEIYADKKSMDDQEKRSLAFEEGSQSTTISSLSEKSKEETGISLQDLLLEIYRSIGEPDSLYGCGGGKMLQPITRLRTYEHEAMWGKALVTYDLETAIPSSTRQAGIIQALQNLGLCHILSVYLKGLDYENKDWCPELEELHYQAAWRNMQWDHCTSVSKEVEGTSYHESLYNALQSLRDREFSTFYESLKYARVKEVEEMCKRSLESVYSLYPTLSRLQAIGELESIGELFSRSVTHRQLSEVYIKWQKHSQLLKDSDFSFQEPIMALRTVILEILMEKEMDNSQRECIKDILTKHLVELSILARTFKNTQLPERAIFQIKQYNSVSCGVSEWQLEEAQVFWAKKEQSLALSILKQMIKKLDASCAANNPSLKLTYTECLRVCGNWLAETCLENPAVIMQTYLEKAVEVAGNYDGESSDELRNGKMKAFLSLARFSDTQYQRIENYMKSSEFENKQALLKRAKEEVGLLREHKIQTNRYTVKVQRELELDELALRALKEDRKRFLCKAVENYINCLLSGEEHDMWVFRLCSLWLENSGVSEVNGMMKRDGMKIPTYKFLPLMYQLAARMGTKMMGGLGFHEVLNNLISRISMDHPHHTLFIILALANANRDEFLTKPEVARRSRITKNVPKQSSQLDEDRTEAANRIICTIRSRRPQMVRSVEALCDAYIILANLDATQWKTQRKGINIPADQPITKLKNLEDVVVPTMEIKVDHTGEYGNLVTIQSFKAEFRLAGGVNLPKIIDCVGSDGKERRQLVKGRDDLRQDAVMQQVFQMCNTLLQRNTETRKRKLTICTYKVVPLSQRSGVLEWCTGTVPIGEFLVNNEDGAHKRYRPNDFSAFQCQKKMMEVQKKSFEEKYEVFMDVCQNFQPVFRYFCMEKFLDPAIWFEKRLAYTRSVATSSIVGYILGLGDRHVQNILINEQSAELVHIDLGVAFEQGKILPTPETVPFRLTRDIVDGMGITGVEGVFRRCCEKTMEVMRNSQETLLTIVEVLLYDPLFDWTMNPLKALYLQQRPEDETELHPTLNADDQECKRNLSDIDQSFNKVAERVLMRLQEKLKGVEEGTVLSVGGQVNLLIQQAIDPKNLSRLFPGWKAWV

Compound | IC50
COc1cccc(C(C)Nc2ccc3c(c2)Cc2cccc(-c4cc(N5CCOCC5)cc(=O)[nH]4)c2O3)n1 (stereo not shown) [Example 2-14-30, 6-(7-((1-(6-Methoxypyridin-2-yl)ethyl)amino)-9H-xanthen-4-yl)-4-morpholine pyridin-2(1H)-one] | 0.1 to 0.5 µM
O=c1cc(N2CCOCC2)cc(-c2cccc3c2Sc2ccc(NC4CCN(Cc5ccncc5)CC4)cc2S3)[nH]1 [Example 1-24-20, 4-Morpholino-6-(7-((1-(pyridin-4-ylmethyl)piperidin-4-yl)amino)thianthren-1-yl)pyridin-2 (1H)-one] | 0.1 to 0.5 µM
CCCC(Nc1ccc2c(c1)Sc1cccc(-c3cc(N4CCOCC4)cc(=O)[nH]3)c1O2)c1cncc(OC)c1 (stereo not shown) [Example 4-4-26, 6-(8-((1-(5-Methoxypyridin-3-yl)butyl)amino)phenoxathiin-4-yl)-4-morpholino pyridin-2(1H)-one] | 0.1 to 0.5 µM
O=c1cc(N2CCOCC2)cc(-c2cccc3c2Oc2ccc(NC4CCNCC4)cc2S3)[nH]1 [Example 4-9, 4-Morpholino-6-(8-(piperidin-4-ylamino)phenoxathiin-4-yl)pyridin-2(1H)-one] | 0.1 to 0.5 µM
CC(Nc1ccc2c(c1)Sc1cccc(-c3cc(N4CCOCC4)cc(=O)[nH]3)c1S2)c1cc(Cl)ncn1 (stereo not shown) [Example 1-12-83, 6-(7-((1-(6-Chloropyrimidin-4-yl)ethyl)amino)thianthren-1-yl)-4-morpholino pyridin-2 (1H)-one] | 0.1 to 0.5 µM
COC[C@H](CN1CCOCC1)Nc1ccc2c(c1)Sc1cccc(-c3cc(N4CCOCC4)cc(=O)[nH]3)c1O2 [Example 10-6, (S)-6-(8-((1-methoxy-3-morpholinopropan-2-yl)amino)phenoxathiin-4-yl)-4-morpholinopyridin-2(1H)-one] | 0.1 to 0.5 µM
O=c1cc(N2CCOCC2)cc(-c2cccc3c2Sc2ccc(NC(CO)CN4CCCC4)cc2S3)[nH]1 (stereo not shown) [Example 1-37-3, 6-(7-((1-Hydroxy-3-(pyrrolidin-1-yl)propan-2-yl)amino)thianthren-1-yl)-4-morpholino pyridin-2(1H)-one] | 0.5 to 2 µM
O=c1cc(N2CCOCC2)cc(-c2cccc3c2Sc2ccc(NC4CCN(CC(F)(F)F)CC4)cc2S3)[nH]1 [Example 1-25, 4-morpholino-6-(7-((1-(2,2,2-trifluoroethyl)piperidin-4-yl)amino)thianthren-1-yl)pyridin-2(1H)-one] | 0.1 to 0.5 µM
N#Cc1cccc(CNc2cccc3c2Cc2cccc(-c4cc(N5CCOCC5)cc(=O)[nH]4)c2O3)c1 [Example 2-56-4, 3-(((5-(4-Morpholino-6-oxo-1,6-dihydropyridin-2-yl)-9H-xanthen-1-yl)amino)methyl)benzonitrile] | 0.1 to 0.5 µM
6-(7-((4,4-Difluoropiperidin- 1-yl)methyl)-9H-xanthen-4- yl)-4-morpholino pyridin-2 (1H)-one [Example 2-2-39] | < 0.1 µM
CC(CN1CCOCC1)C(=O)Nc1ccc2c(c1)Sc1cccc(-c3cc(N4CCOCC4)cc(=O)[nH]3)c1S2 (stereo not shown) [Example 8-3, 2-Methyl-3-morpholino-N-(6-(4-morpholino-6-oxo-1,6-dihydropyridin-2-yl)thianthren-2-yl)propanamide] | 0.5 to 2 µM
O=c1cc(N2CCOCC2)cc(-c2cccc3c2Sc2ccc(NCCN4CCCOCC4)cc2S3)[nH]1 [Example 1-10-6, 6-(7-((2-(1,4-Oxazepan-4-yl)ethyl)amino)thianthren-1-yl)-4-morpholinopyridin-2(1H)-one] | 0.1 to 0.5 µM
Cc1ccc(C(CC2CCCCC2)Nc2ccc3c(c2)Sc2cccc(-c4cc(N5CCOCC5)cc(=O)[nH]4)c2S3)nc1 (stereo not shown) [Example 1-12-129, 6-(7-((2-Cyclohexyl-1-(5-methylpyridin-2-yl)ethyl)amino)thianthren-1-yl)-4-morpholino pyridin-2(1H) one] | 0.5 to 2 µM
COc1cccnc1CNc1ccc2c(c1)Cc1cccc(-c3cc(N4CCOCC4)cc(=O)[nH]3)c1O2 [Example 2-14-8, 6-(7-(((3-Methoxypyridin-2-yl)methyl)amino)-9H-xanthen-4-yl)-4-morpholino pyridin-2(1H)-one] | 0.1 to 0.5 µM
O=c1cc(N2CCOCC2)cc(-c2cccc3c2Oc2ccc(NCc4cccc(Cl)n4)cc2C3)[nH]1 [Example 2-14-2, 6-(7-(((6-Chloropyridin-2-yl)methyl)amino)-9H-xanthen-4-yl)-4-morpholino pyridin-2(1H)-one] | 0.1 to 0.5 µM
CC(Nc1ccc2c(c1)Cc1cccc(-c3cc(N4CCOCC4)cc(=O)[nH]3)c1O2)c1cc(C#N)ncn1 (stereo not shown) [Example 2-14-60, 6-(1-((5-(4-Morpholino-6-oxo-1,6-dihydropyridin-2-yl)-9H-xanthen-2-yl)amino)ethyl)pyrimidine-4-carbonitrile] | 0.1 to 0.5 µM
CC(Nc1ccc2c(c1)Cc1cccc(-c3cc(N4CCOCC4)cc(=O)[nH]3)c1O2)c1ncc(CN2CCOCC2)cn1 (stereo not shown) [Example 2-14-67, 4-Morpholino-6-(7-((1-(5-(morpholinomethyl)pyrimidin-2-yl)ethyl)amino)-9H-xanthen-4-yl)pyridin-2 (1H)-one] | 0.5 to 2 µM

Compound | IC50
CC(Nc1ccc2c(c1)Cc1cccc(-c3cc(N4CCOCC4)cc(=O)[nH]3)c1O2)c1cccc(F)n1 (single isomer, unassigned) [Example 2-14-87-2, 6-(7-((1-(6-fluoropyridin-2-yl)ethyl)amino)-9H-xanthen-4-yl)-4-morpholinopyridin-2(1H)-one] | 0.1 to 0.5 µM
CC(Nc1ccc2c(c1)Sc1cccc(-c3cc(N4CCOCC4)cc(=O)[nH]3)c1S2)c1cc(C#N)ncn1 (stereo not shown) [Example 1-12-84, 6-(1-((6-(4-Morpholino-6-oxo-1,6-dihydropyridin-2-yl)thianthren-2-yl)amino)ethyl)pyrimidine-4-carbonitrile] | 0.1 to 0.5 µM
O=c1cc(N2CCOCC2)cc(-c2cccc3c2Oc2ccc(NC4CCN(c5cccnc5)CC4)cc2C3)[nH]1 [Example 2-2-28, 4-Morpholino-6-(7-((l-(pyridin-3-yl)piperidin-4-yl)amino)-9H-xanthen-4-yl) pyridin-2(1H)-one] | 0.1 to 0.5 µM
CC(CN1CC(F)(F)C1)Nc1ccc2c(c1)Sc1cccc(-c3cc(N4CCOCC4)cc(=O)[nH]3)c1S2 (stereo not shown) [Example 1-43-4, 6-(7-((1-(3,3-Difluoroazetidin-1-yl)propan-2-yl)amino)thianthren-1-yl)-4-morpholino pyridin-2(1H)-one] | 0.1 to 0.5 µM
Cc1ccc(C(Nc2ccc3c(c2)Sc2cccc(-c4cc(N5CCOCC5)cc(=O)[nH]4)c2S3)[C@H]2CCN(C)C2)nc1 (single isomer, unassigned) [Example 1-56-14] | < 0.1 µM
Cc1ccnc(CNc2ccc3c(c2)Cc2ccnc(-c4cc(N5CCOCC5)cc(=O)[nH]4)c2O3)c1 [Example 2-41-7, 6-(7-(((4-Methylpyridin-2-yl)methyl)amino)-5H-chromeno [2,3-c]pyridin-1-yl)-4-morpholino pyridin-2(1H)-one] | 0.1 to 0.5 µM
Cc1ccc(C(CC(C)C)Nc2ccc3c(c2)Sc2cccc(-c4cc(N5CCOCC5)cc(=O)[nH]4)c2S3)nc1 (stereo not shown) [Example 1-12-120, 6-(7-((3-Methyl-1-(5-methylpyridin-2-yl)butyl)amino)thianthren-1-yl)-4-morpholino pyridin-2(1H)-one] | 0.1 to 0.5 µM
O=c1cc(N2CCOCC2)cc(-c2cccc3c2Oc2ccc(NC4CCN(Cc5ccccn5)CC4)cc2C3)[nH]1 [Example 2-28-1, 4-Morpholino-6-(7-((1-(pyridin-2-ylmethyl)piperidin-4-yl)amino)-9H-xanthen-4-yl)pyridin-2 (1H)-one] | 0.5 to 2 µM
CC(Nc1ccc2c(c1)Cc1cccc(-c3cc(N4CCOCC4)cc(=O)[nH]3)c1O2)C1CC1 (stereo not shown) [Example 2-14-70, 6-(7-((1-Cyclopropylethyl)amino)-9H-xanthen-4-yl)-4-morpholino pyridin-2(1H)-one] | 0.5 to 2 µM
CN(C)CCNc1ccc2c(c1)Sc1cccc(-c3cc(N4CCOCC4)cc(=O)[nH]3)c1S2 [Example 1-10-4, 6-(7-((2-(Dimethylamino)ethyl)amino)thianthren-1-yl)-4-morpholinopyridin-2(1H)-one] | 0.1 to 0.5 µM
O=c1cc(N2CCOCC2)cc(-c2cccc3c2Oc2ccc(NC4CCN(CCc5ccc(CO)cc5)CC4)cc2C3)[nH]1 [Example 2-30-17, 6-(7-((1-(4-(Hydroxymethyl)phenethyl)piperidin-4-yl)amino)-9H-xanthen-4-yl)-4-morpholino pyridin-2 (1H)-one] | 0.1 to 0.5 µM
Cc1cccc(CNc2ccc3c(c2)Cc2cccc(-c4nc(N5CCOCC5)cc(=O)[nH]4)c2O3)n1 [Example 2-52-1, 2-(7-(((6-Methylpyridin-2-yl)methyl)amino)-9H-xanthen-4-yl)-6-morpholino pyrimidine-4(3H)-one] | 0.1 to 0.5 µM
O=c1cc(N2CCOCC2)cc(-c2cccc3c2Sc2ccc(NCc4cnccn4)cc2S3)[nH]1 [Example 1-12-42, 4-Morpholino-6-(7-((pyrazin-2-ylmethyl)amino)thianthren-1-yl) pyridin-2(1H)-one] | 0.1 to 0.5 µM
O=c1cc(N2CCOCC2)cc(-c2cccc3c2Sc2ccc(NC4CCN(C5CCOC5)C4)cc2S3)[nH]1 (stereo not shown) [Example 1-24-14, 4-Morpholino-6-(7-((1-(tetrahydrofuran-3-yl)pyrrolidin-3-yl)amino)thianthren-1-yl)pyridin-2 (1H)-one] | 0.1 to 0.5 µM
Cc1ccc(CNc2ccc3c(c2)Cc2cccc(-c4cc(N5CCOCC5)cc(=O)[nH]4)c2O3)s1 [Example 2-14-40, 6-(7-(((5-Methylthiophen-2-yl)methyl)amino)-9H-xanthen-4-yl)-4-morpholino pyridin-2(1H)-one] | 0.5 to 2 µM
CC(C)Nc1cncc(CNc2ccc3c(c2)Cc2cccc(-c4cc(N5CCOCC5)cc(=O)[nH]4)c2O3)c1 [Example 2-2-75, 6-(7-(((5-(Isopropylamino)pyridin-3-yl)methyl)amino)-9H-xanthen-4-yl)-4-morpholino pyridin-2(1H)-one] | 0.1 to 0.5 µM
O=c1cc(N2CCOCC2)cc(-c2cccc3c2Oc2ccc(NCc4cncs4)cc2C3)[nH]1 [Example 2-14-37, 4-Morpholino-6-(7-((thiazol-5-ylmethyl)amino)-9H-xanthen-4-yl) pyridin-2(1H)-one] | 0.5 to 2 µM
